Assay results as given in patent US5290757A (priority 1993, dated 1994).
Where a SMILES comes first, the peptide text is derived from it.

Columns and labels:
[1] = system: perennial ryegrass (Lolium perenne) seeds; test: Petri dish root-inhibition bioassay on perennial ryegrass seeds; assay type: in vivo; details: for Root Length of Perennial Ryegrass Seedlings Expressed as a Percentage of the Control: average of 2 trials; for relative effectiveness among the five dipeptides: perennial ryegrass root inhibition
Protocol: Bioactive fractions of the eluate were identified with bioassays, then pooled and subjected to further purification steps. […] The dishes were sealed with parafilm and placed in a controlled environmental chamber. The light intensity in the growth chamber was 70 μmol m^-2 s^-1 at 25° C./15° C. day/night temperature with a 16 hr photoperiod. One ml of a given eluate fraction was applied to the filter paper in each petri dish. The study was conducted with seven replications for each eluate fraction. […] Louis, Mo. The fifth, Gln-Gln, was obtained from Bachem Bioscience Inc. The activity of each synthetically derived peptide was tested in seven replications on perennial ryegrass using the same bioassay technique described in Example 4 in the presence of increasing amounts of the dipeptides mixed with distilled water (Table V).

[2] = system: creeping bentgrass (Agrostis palustris); test: Soil pot study of dipeptide bioactivity on creeping bentgrass; assay type: in vivo; details: for Mean root length of creeping bentgrass seedlings / Percentage of creeping bentgrass plants surviving: 21 days after treatment
Protocol: In a study designed to verify the bioactivity of the dipeptides on soil, Ala-Gln and Gly-Ala were applied to the surface of 56.3 cm^2 plastic pots filled with a Nicollet (fine, loamy, […], Aquic Hapludol soil. The two dipeptides were applied at 0 to 3552 mg/dm^2. […] The test specie was creeping bentgrass (Agrostis palustris).

[3] = 8 μg/cm^2 dipeptide on filter paper
[4] = 13 μg/cm^2 dipeptide on filter paper
[5] = 21 μg/cm^2 dipeptide on filter paper
[6] = 26 μg/cm^2 dipeptide on filter paper
[7] = 31 μg/cm^2 dipeptide on filter paper
[8] = 39 μg/cm^2 dipeptide on filter paper
[9] = 52 μg/cm^2 dipeptide on filter paper
[10] = concentrations of 1.8 g/dm^2 and above
[11] = much lower concentrations than 1.8 g/dm^2

Row | Structure (SMILES) | Root Length of Perennial Ryegrass Seedlings Expressed as a Percentage of the Control [1, 3] [%] | Root Length of Perennial Ryegrass Seedlings Expressed as a Percentage of the Control [1, 4] [%] | Root Length of Perennial Ryegrass Seedlings Expressed as a Percentage of the Control [1, 5] [%] | Root Length of Perennial Ryegrass Seedlings Expressed as a Percentage of the Control [1, 6] [%] | Root Length of Perennial Ryegrass Seedlings Expressed as a Percentage of the Control [1, 7] [%] | Root Length of Perennial Ryegrass Seedlings Expressed as a Percentage of the Control [1, 8] [%] | Root Length of Perennial Ryegrass Seedlings Expressed as a Percentage of the Control [1, 9] [%] | relative effectiveness among the five dipeptides [1] | Mean root length of creeping bentgrass seedlings ([2]; 89 mg/dm^2 on soil surface) [mm] | Percentage of creeping bentgrass plants surviving ([2]; 89 mg/dm^2 on soil surface) [%] | Mean root length of creeping bentgrass seedlings ([2]; 178 mg/dm^2 on soil surface) [mm] | Percentage of creeping bentgrass plants surviving ([2]; 178 mg/dm^2 on soil surface) [%] | Mean root length of creeping bentgrass seedlings ([2]; 355 mg/dm^2 on soil surface) [mm] | Percentage of creeping bentgrass plants surviving ([2]; 355 mg/dm^2 on soil surface) [%] | Mean root length of creeping bentgrass seedlings ([2]; 710 mg/dm^2 on soil surface) [mm] | Percentage of creeping bentgrass plants surviving ([2]; 710 mg/dm^2 on soil surface) [%] | Mean root length of creeping bentgrass seedlings ([2]; 1066 mg/dm^2 on soil surface) [mm] | Percentage of creeping bentgrass plants surviving ([2]; 1066 mg/dm^2 on soil surface) [%] | Mean root length of creeping bentgrass seedlings ([2]; 1776 mg/dm^2 on soil surface) [mm] | Percentage of creeping bentgrass plants surviving ([2]; 1776 mg/dm^2 on soil surface) [%] | also measured
1 | C[C@H](N)C(=O)N[C@@H](C)C(=O)O [Ala-Ala, alaninyl-alanine] (H-Ala-Ala-OH) | 74 | 44 | 27 | 5 | 1 | 2 | 0 | most effective |  |  |  |  |  |  |  |  |  |  |  |  | 
2 | C[C@H](N)C(=O)N[C@@H](CC(N)=O)C(=O)O [Ala-Asn, alaninylasparagine] (H-Ala-Asn-OH) | 101 | 85 | 63 | 29 | 2 | 0 | 0 | most effective |  |  |  |  |  |  |  |  |  |  |  |  | 
3 | C[C@H](N)C(=O)N[C@@H](CCC(N)=O)C(=O)O [Ala-Gln, alaninyl-glutamine] (H-Ala-Gln-OH) | 83 | 70 | 49 | 41 | 4 | 0 | 0 |  | 20 | 100 | 15 | 40 | 2 | 30 | 0 | 25 | 0 | 5 | 0 | 0 | Mean root length of creeping bentgrass seedlings ([2]; 3552 mg/dm^2 on soil surface): 0 mm; Percentage of creeping bentgrass plants surviving ([2]; 3552 mg/dm^2 on soil surface): 0%; inhibition of emergence and establishment of creeping bentgrass [2, 10]: completely inhibit; inhibition of emergence and establishment of creeping bentgrass [2, 11]: partially effective
4 | NC(=O)CC[C@H](NC(=O)[C@@H](N)CCC(N)=O)C(=O)O [Gln-Gln, glutaminyl-glutamine] (H-Gln-Gln-OH) | 107 | 89 | 82 | 63 | 12 | 3 | 0 |  |  |  |  |  |  |  |  |  |  |  |  |  | 
5 | C[C@H](NC(=O)CN)C(=O)O [Gly-Ala, glycinyl-alanine] (H-Gly-Ala-OH) | 95 | 68 | 29 | 16 | 9 | 2 | 0 |  | 20 | 105 | 15 | 40 | 5 | 30 | 2 | 25 | 2 | 25 | 0 | 0 | Mean root length of creeping bentgrass seedlings ([2]; 3552 mg/dm^2 on soil surface): 0 mm; Percentage of creeping bentgrass plants surviving ([2]; 3552 mg/dm^2 on soil surface): 0%; inhibition of emergence and establishment of creeping bentgrass [2, 10]: completely inhibit; inhibition of emergence and establishment of creeping bentgrass [2, 11]: partially effective
